Read-outs that look alike come from different tables or passages of the source.
Experiments:
[1] = test system: mouse foot pad inflammation induced by Freund's complete adjuvant (FCA); assay: Freund's complete adjuvant induced foot pad inflammation in mice (Example 1); assay type: in vivo
Experimental: Mice were placed in the following administration groups, and administration occurred daily:
1) Control (no treatment) (n=4)
2) Placebo (PBS, i.p.) inoculation—(i.e. CFA only) (n=4)
3) H2 enriched PBS inoculation (i.e. CFA+H2) (n=4)
4) Lactulose inoculation at 0.5 mL/mouse (i.e. CFA+Lact) (n=4)
5) LYRICA® (i.e. CFA+Lyr) (n=5)
6) LYRICA®+H2 enriched PBS (i.e. CFA+Lyr+H2) (n=5)
7) LYRICA®+Lactulose in PBS (i.e. CFA+Lact+H2) (n=4)
CFA was injected into the mice in groups 2 through 7 above. Inflammation was induced in the mice by injection of Freund's complete adjuvant (FCA), 25 μL/foot, on day 0 as shown in FIG. 1A. […] These measurements included thickness of foot pad (level of inflammation), amount of H2 in abdominal cavity, amount of nerve growth factor (NGF) (pain marker) in foot pad, amount of Substance P (pain marker) in foot pad, and amount of IL-1β in foot pad (level of inflammation).

GAD = details: cited from earlier work
[2] = test system: tonic extensor seizures in mice; details: cited from earlier work; for Effect # Protected/# Tested / Ataxia # Ataxia/# Tested: mice, intravenous, 120 min after dose; for Effect # Protected/# Tested: electroshock
[3] = H2 concentration in ascites fluid after ingestion (Example 2); assay type: in vivo, mouse; details: for H2 concentration in ascites fluid after ingestion of sugar solution: mouse abdominal cavity, ranking among sugars tested
Experimental: Lactose, glucose, galactose, fructose, mannitol, inulin, Splenda® (McNeil Nutritionals (sucralose)), Equal® (Merisant (aspartame, dextrose, and maltodextrin)), and lactulose were tested along with a control.
After 30 minutes, H2-enriched water provided approximately 40 μM H2 concentration but dropped off to approximately 15 μM after 4 hours. At 4 hours, lactulose provided over 20 μM H2 concentration.

[4] = test system: Freund's complete adjuvant-induced hind paw inflammation in mice; assay: Freund's complete adjuvant-induced hind paw inflammation in mice (Example 4); assay type: in vivo, mice (BALB/c); details: day 7, versus mice without lactulose
Experimental: The following experiment was performed to test the effects of Lactulose combined with Celecoxib or Ibuprofen on Freund's complete adjuvant-induced hind paw inflammation in mice, with the results shown in FIGS. 12-15.
For induction of hindpaw inflammation, mice (BALB/c; 8 w old male n=6/group) received i.pl. injection of 25 μl of complete Freund's adjuvant (CFA, diluted 1:1 with PBS, 2 mg/ml; Mycobacterium tuberculosis; Difco Laboratories, Detroit, Mich.). Lactulose (10% water) or control water alone was administered once in a day for 7 days (500 μl/day) by oral gavage using a 20-G bulb-tipped gastric gavage needle (P.O.). Celecoxib (Toronto Research Chemicals) and Ibuprofen (Enzo Life Sciences) dissolved in PBS was applied to mice once a day via intra-peritoneal (i.p.) injection (10 mg/kg/day, respectively) for 7 days. The thickness of the foot pad was measured using a digital microcaliper as mice were sacrificed on 7 day. Surgically removed hind paw tissue was homogenized in EIA-Buffer (Cayman) and subjected to mouse NGF ELISA (Millipore), PGE2 EIA (Cayman), or TNF-α ELISA (R&D systems).

[5] = test system: mouse macrophage cell line (RAW264.7); assay: TNF-α production from LPS-stimulated mouse macrophages (Example 3); assay type: cell-based; details: LPS-stimulated RAW264.7, 24 hours, ELISA; drug 10-1000 nM, with or without H2
Experimental: The following is an in vitro experiment to test the effects of hydrogen on the Celecoxib- or Ibuprofen-mediated anti-inflammatory activities, and the results are shown in FIGS. 10 and 11.
The mouse macrophage cell line (RAW264.7) was seeded at a density of 1.0×10^5 cells/well in 96-well culture plates in Minimum Essential Medium Alpha ( ? -MEM, Sigma) supplemented with penicillin G solution (100 U/ml, GIBCO; Invitrogen, Buffalo, N.Y.), streptomycin ([…], GIBCO; Invitrogen), and gentamicin (50 ? g/ml, GIBCO; Invitrogen) containing 10% FBS in the presence or absence of H2 (300 nM/ml) for 30 min. Then the cells were exposed to LPS (0.1 mg/ml, Invivogen, San Diego, Calif.), with or without a variety of concentrations of Celecoxib or Ibuprofen (10-1000 nM). After culture of the RAW264.7 cells for 24 hours in a CO2 incubator (37° C.), the culture supernatant was harvested and subjected to TNF-α ELISA (R&D Systems).

Compound: CC(C)C[C@H](CN)CC(=O)O [LYRICA®, (S)-(+)-4-amino-3-(2-methylpropyl)butanoic acid]
- IL-1β in tissue (level of inflammation) ([1]; CFA-injected mice): slightly reduced levels of inflammation compared to placebo group 2
- Substance P (pain marker) in tissue ([1]; CFA-injected mice): reduction in the marker compared to the placebo group 2

Compound: CC(C)CC(CN)CC(=O)O (racemic) [(R,S)—i-C4H9, H, 4-amino-3-(2-methylpropyl)butanoic acid]
- activating GAD in vitro (GAD; compared with the other analogs tested): least effective one of the analogs tested
- potency when tested in vivo ([2]; compared with the other analogs): more potent than the other analogs

Compound: CCC(C)C(CN)CC(=O)O (stereo not drawn) [s-C4H9]
- Effect # Protected/# Tested ([2]; 3 mg/kg): 2/10
- Ataxia # Ataxia/# Tested ([2]; 3 mg/kg): 0/10
- Effect # Protected/# Tested ([2]; 10 mg/kg): 3/10
- Ataxia # Ataxia/# Tested ([2]; 10 mg/kg): 0/10
- Effect # Protected/# Tested ([2]; 30 mg/kg): 2/10
- Ataxia # Ataxia/# Tested ([2]; 30 mg/kg): 0/10

Compound: CC(C)(C)C(CN)CC(=O)O (stereo not drawn) [t-C4H9]
- Effect # Protected/# Tested ([2]; 10 mg/kg): 2/10
- Ataxia # Ataxia/# Tested ([2]; 10 mg/kg): 0/10
- Effect # Protected/# Tested ([2]; 30 mg/kg): 2/10
- Ataxia # Ataxia/# Tested ([2]; 30 mg/kg): 0/10
- Effect # Protected/# Tested ([2]; 100 mg/kg): 5/10
- Ataxia # Ataxia/# Tested ([2]; 100 mg/kg): 0/10

Compound: CC(C)CC(CN)CC(=O)O (stereo not drawn) [i-C4H9, 4-amino-3-(2-methylpropyl)butanoic acid]
- Effect # Protected/# Tested ([2]; 0.3 mg/kg): 1/10
- Effect # Protected/# Tested ([2]; 0.8 mg/kg): 3/10
- Effect # Protected/# Tested ([2]; 2.0 mg/kg): 5/10
- Effect # Protected/# Tested ([2]; 5.5 mg/kg): 7/10

Compound: CC(CN)CC(=O)O (racemic) [(R,S)—CH3]
- Effect # Protected/# Tested ([2]; 10 mg/kg): 0/5
- Ataxia # Ataxia/# Tested ([2]; 10 mg/kg): 0/5
- Effect # Protected/# Tested ([2]; 30 mg/kg): 4/5
- Ataxia # Ataxia/# Tested ([2]; 30 mg/kg): 0/5
- Effect # Protected/# Tested ([2]; 100 mg/kg): 3/5
- Ataxia # Ataxia/# Tested ([2]; 100 mg/kg): 0/5

Compound: OC[C@H]1O[C@@H](O[C@@H]2[C@@H](CO)OC(O)(CO)[C@H]2O)[C@H](O)[C@@H](O)[C@H]1O (mixture of isomers) [Lactulose, lactulose]
- H2 concentration in the abdomen ([1]; day 8, CFA-injected mice): highest
- H2 concentration in ascites fluid ([3]; after 4 hours): over 20 μM
- H2 concentration in ascites fluid after ingestion of sugar solution [3]: highest concentration of H2 in ascites fluid
- foot pad swelling ([4]; lactulose 10% P.O. 500 μl/day, drug 10 mg/kg/day i.p.): reduced
- NGF in inflamed foot pads [4]: reduced
- amount of PGE2 in inflamed foot pads [4]: reduced
- amount of TNF-α in inflamed foot pads [4]: greatly reduced

Compound: CC(C)(C)CC(CN)CC(=O)O (stereo not drawn) [neo-C5H11]
- Effect # Protected/# Tested ([2]; 10 mg/kg): 2/10
- Ataxia # Ataxia/# Tested ([2]; 10 mg/kg): 0/10
- Effect # Protected/# Tested ([2]; 30 mg/kg): 4/10
- Ataxia # Ataxia/# Tested ([2]; 30 mg/kg): 0/10
- Effect # Protected/# Tested ([2]; 100 mg/kg): 4/10
- Ataxia # Ataxia/# Tested ([2]; 100 mg/kg): 0/10

Compound: C[C@H](N)CCC(=O)O [H(S)]
- Activation of GAD by GABA analogs expressed in % (GAD; 0.25 mM): 100%
- Activation of GAD by GABA analogs expressed in % (GAD; 1.0 mM): 100%
- Activation of GAD by GABA analogs expressed in % (GAD; 2.5 mM): 100%

Compound: NCC1(CC(=O)O)CCCCC1 [GABAPENTIN, gabapentin]
- Activation of GAD by GABA analogs expressed in % (GAD; 0.25 mM): 105%
- Activation of GAD by GABA analogs expressed in % (GAD; 1.0 mM): 145%
- Activation of GAD by GABA analogs expressed in % (GAD; 2.5 mM): 178%

Compound: CC(N)CCC(=O)O (racemic) [H(R,S)]
- Activation of GAD by GABA analogs expressed in % (GAD; 0.25 mM): 104%
- Activation of GAD by GABA analogs expressed in % (GAD; 1.0 mM): 111%
- Activation of GAD by GABA analogs expressed in % (GAD; 2.5 mM): 140%

Compound: CC(C)Cc1ccc(C(C)C(=O)O)cc1 (racemic) [ibuprofen, (RS)-2-(4-(2-methylpropyl)phenyl)propanoic acid]
- TNF-α production [5]: TNF-α suppression

Compound: inulin
- H2 concentration in ascites fluid after ingestion of sugar solution [3]: next highest concentration

Compound: CCCC(CCC)C(=O)[O-].[Na+] [Sodium Valproate]
- Activation of GAD by GABA analogs expressed in % (GAD; 0.05 mM): 105%
- Activation of GAD by GABA analogs expressed in % (GAD; 0.1 mM): 115%
- Activation of GAD by GABA analogs expressed in % (GAD; 0.25 mM): 119%
- Activation of GAD by glutamate analogs expressed in % (GAD; 0.25 mM): 119%
- Activation of GAD by GABA analogs expressed in % (GAD; 0.5 mM): 124%
- Activation of GAD by GABA analogs expressed in % (GAD; 1.0 mM): 138%
- Activation of GAD by glutamate analogs expressed in % (GAD; 1.0 mM): 138%
- Activation of GAD by GABA analogs expressed in % (GAD; 2.5 mM): 207%
- Activation of GAD by glutamate analogs expressed in % (GAD; 2.5 mM): 207%

Compound: CC(C)(CN)CC(=O)O [(CH3)2]
- Effect # Protected/# Tested ([2]; 30 mg/kg): 4/5
- Ataxia # Ataxia/# Tested ([2]; 30 mg/kg): 0/5
- Effect # Protected/# Tested ([2]; 100 mg/kg): 4/5
- Ataxia # Ataxia/# Tested ([2]; 100 mg/kg): 0/5

Compound: C[C@@H](N)CCC(=O)O [H(R)]
- Activation of GAD by GABA analogs expressed in % (GAD; 0.25 mM): 108%
- Activation of GAD by GABA analogs expressed in % (GAD; 1.0 mM): 125%
- Activation of GAD by GABA analogs expressed in % (GAD; 2.5 mM): 173%

From US9925204B2, “Anti-inflammatory compounds in combination with hydrogen for the treatment of inflammation” (priority 2012, dated 2018)
